# Assay results: patent US7763287B2, “Extract of Cercis chinensis having anti-oxidant activity and anti-aging activity, and cosmetical composition containing the extract for anti-oxidation, skin-aging protection and wrinkle improvement” (Hankook Pharm. Co., Inc., priority 2002, dated 2010)
# Legend:
# HEK-N/F cells [1] = test: Prolongation of life span of a cell; assay type: cell-based, human; details: 3 μg/ml during culture
# Protocol: HEK-N/F cells were obtained from foreskin of a newborn baby after its fibroblasts, another major component of skin, were treated with uridine bromide. Then, the cells were cultured in DMEM medium supplemented with 10 FBS. HEK-N/F cells were diluted consecutively at the ratio of 1:4 during the culture. Before being treated with samples, the cells were grown up to 3 PDL (population doubling level). During the culture, each sample was administered by […]. Medium was replaced every three days by fresh medium supplemented with a culture solution containing the equal concentration of the sample.
# [2] = Hydroxyl radical scavenging activity (deoxyribose/TBA, method of Halliwell); assay type: biochemical; details: 10 μg of sample, total volume 1 ml
# Protocol: Hydroxyl radical (HO.) is generated by the reaction of a metal ion or a superoxide radical. Owing to its strong reactivity, hydroxyl radical causes oxidative damages to DNA, protein and lipid in vivo. Nitric oxide (NO.) is reacted with a superoxide radical to generate a peroxy nitrite (ONOO—), also having strong reactivity. […] Particularly, each compound was mixed with 10 μg of a sample dissolved in DMSO, phosphate buffer (20 mM, pH 7.4) 5.6 mM deoxyribose, 0.1 mM FeCl3, 1 mM H2O2 and 0.1 mM ascorbic acid, making total volume 1 ml, which was then reacted at 37° C. for 60 minutes. 250 μl of 20% TCA and 250 μl of 1% TBA solution (dissolved in 50 mM NaOH) were added to the reaction solution, followed by thermal reaction at 95° C. for 5 minutes. After completing the reaction, OD532 was measured. Hydroxyl radical scavenging activity was calculated by the below
# <Mathematical Formula 3>. BHA and α-tocopherol were used for a positive control. Hydroxyl Radical Scavenging Activity (%)=(Acontrol−Asample)/(Acontrol−Ablank)×100 <Mathematical Formula 3>
# Acontrol: Optical density of control group well (sample was not added),
# Asample: Optical density of experimental group well (sample was added),
# Ablank: Optical density of well not added with sample, TCA and TBA
# HEK-N/F cells [3] = test: Telomere length / maximum PDL (Southern blot of TRFs); assay type: cell-based, human
# Protocol: In the above Example 8, an extract of […] chinensis and active ingredients separated from the same were confirmed to have an effect of prolongation of life span of a cell. Thus, in this example, relation between the effect of prolongation of life span and the length of a telomere was investigated. Particularly, genomic DNA was extracted from each cell of different ages by using a nucleic acid extraction kit (Isoquick Nucleic Acid Extraction kit, ORCA Research Inc.), which was stored at 4° C. after being dissolved in Tris-EDTA solution (10 mM Tris-HCl, 1 mM EDTA, pH 8.0). 2 μl of 10×H buffer solution (TaKaRa), 2 μl of the extracted genomic DNA solution and distilled water were all mixed in a 1.5 ml tube, making final volume 19 μl. Then, 1 μl at of restriction enzyme […]) was added thereto. […] Then, the gel was immersed in 0.25 N HCl, followed by shaking for 15 minutes. The gel was washed twice with distilled water. This gel was dipped into denaturing solution (0.2 N NaOH, 0.6 M NaCl), followed by shaking for 25 minutes at room temperature. And then, the gel was washed three times with distilled water. On a blotting device filled with 6×SSC, nitrocellulose membrane (Optitran BA-S 85, Schleicher & Schuel), 3 mm filter paper, paper towel, glass plate and weight (2 kg) were loaded in that order, followed by blotting overnight. After the blotting was finished, membrane filter was soaked in 3×SSC, and then water was discarded smoothly. The positions of the wells on the membrane were marked. The membrane was placed between filter papers, followed by baking at 80° C. for overnight. […] After being dried, the membrane was covered with wrap and set in a cassette on which X-ray film (Scientific Imaging Film, Kodak) and intensifying screen were attached. Autoradiography was performed at -80° C. for overnight. Based on the developed film and the location of the membrane, the positions of the wells were marked by a magic pen. The density peak of TRFs was detected by a laser densitometer (UltroScan XL, Pharmacia) and its mobility was calculated.
# HEK-N/F cells [4] = test: Cell protection from UV irradiation (DNA damage, ethidium homodimer fluorescence); assay type: cell-based, human; details: 35 mJ/cm^2 UVB, Et2 fluorescence (DNA damage)
# Protocol: UV irradiation induces DNA damage and DNA-protein connection by increasing active oxygen in cells. When HEK-N/F cells were irradiated by 35 mJ/cm^2 of UVB, DNA chains in nucleus were cut. After uniting the broken chains to ethidium homodimer (Et2), a DNA chain intercalating fluorescent dye, extent of fluorescence was measured to quantify the amount of DNA damage. Particularly, HEK-N/F cells were cultured on serum-free KGM medium (Clonetics), which were inoculated into wells of a 24-well plate by 0.5−4×10^4 cells/2 cm^2. Then, the cells were cultured for 18 hours, after which a sample was treated thereto for 2 hours. […] The cells exposed on UV were further cultured for 1-7 hours, and then, […] ethidium homodimer (Et2, Millipore) was added. 30 minutes later, fluorescence was measured with Millipore microplate fluorometer Cytofluor 2350 (excitation: 485 nm, emission: 645 nm).
# rat brain homogenates = test: Lipid peroxidation inhibitory activity (Fe2+/ascorbic acid, TBA method); details: Table 4
# [5] = Superoxide radical scavenging activity (xanthine/xanthine oxidase, NBT); assay type: biochemical; details: Table 6
# Protocol: Superoxide radical (O^2−) itself has a little reactivity, but is easily changed into H2O2 that generates hydroxyl radical having strong reactivity or is reacted with nitric oxide (NO.) to generate peroxy nitrite (ONOO^−) having strong reactivity, too. Thus, it might be a reason for oxidation of SH-group, nitration of protein tyrosine, lipid peroxidation and DNA damage. […] Basically, measurement of superoxide radical scavenging activity was performed by investigating the activity of superoxide dismutase (SOD), an enzyme scavenging superoxide by dismutation of the same. In the present invention, an activity of a sample to inhibit superoxide production by the enzyme reaction of xanthine/xanthine oxidase and its another activity to inhibit reaction (NBT+20^2−→NBTH2+2O2) generating formazan by reduction of nitro blue tetrazolium (referred as ‘NBT’ hereinafter) were measured. Particularly, wells of a 96-well plate were supplemented with 50 μl of 4 mM xanthine (Sigma), 50 μl of […] NBT (Sigma), 50 μl of 50 mM phosphate buffer (pH 7.8, 1 mM EDTA) and 10 μl of each sample, into which 40 μl of xanthine oxidase was added to induce a reaction. After the reaction was completed, each reaction solution was collected as scheduled, and OD550 was measured with an ELISA reader. […] Superoxide Radical Scavenging Activity (%)=(Acontrol−Asample)/(Acontrol−Ablank)×100 <Mathematical Formula 4> […]
# [6] = Nitric oxide scavenging activity; assay type: biochemical
smiles,measurement,setting,value
"O=c1c(O)c(-c2cc(O)c(O)c(O)c2)oc2cc(O)cc(O)c12 [Chemical Formula 9, myricetin]",average life span of a cell,HEK-N/F cells [1],56 days
same,"life span, times as long as that of a control",HEK-N/F cells [1],1.6 times
same,Hydroxyl radical scavenging activity (%),[2],8.7%
same,"telomere shortening speed delayed, comparing to control",HEK-N/F cells [3],1.6 times
same,maximum PDL,HEK-N/F cells [3]; control 14.1,23.1
same,fluorescence lower than that of a control,HEK-N/F cells [4],54.7%
same,Lipid Peroxidation Inhibitory Activity IC50,rat brain homogenates,0.95 ± 0.06 µg/mL
same,Superoxide radical scavenging activity IC50,[5],12.1 ± 1.1 µg/mL
same,Nitric oxide scavenging activity (in words),[6],comparatively high nitric oxide scavenging activity
